# Assay results as given in ChEMBL document CHEMBL1132834, “Phenylpropenamide derivatives as inhibitors of hepatitis B virus replication” (Bioorg Med Chem Lett, 2000).
# Tests used:
# [1] = system: Newcastle disease virus; assay: Inhibition of Newcastles disease virus replication by 50% (no effect at this concentration); assay type: functional, organism-based; details: avian paramyxovirus 1
# [2] = Inhibition of Duck HBV replication by 50% (no effect at this concentration); assay type: functional, organism-based; details: Anas sp.
# [3] = Reduction of viable cell numbers by 50% was evaluated by HepAD38 cellular assay; assay type: ADME, cell-based; details: human, HepAD38 cells; read-out: TC50 (the source's name)
# [4] = (§1) Inhibition of hepatitis B virus replication in the HepAD38 cell line.; assay type: functional, cell-based; details: Homo sapiens
# [5] = system: Human immunodeficiency virus 1; assay: Inhibition of HIV-1 replication by 50% (no effect at this concentration); assay type: functional, organism-based
# [6] = system: Human alphaherpesvirus 1; assay: Inhibition of HSV-1 replication by 50% (no effect at this concentration); assay type: functional, organism-based
# [7] = system: Vesicular stomatitis virus; assay: Inhibition of Vesicular stomatis virus replication by 50% (no effect at this concentration); assay type: functional, organism-based
# [8] = Inhibition of Woodchuck HBV replication by 50% (no effect at this concentration); assay type: functional, organism-based; details: Marmota monax
# [9] = Concentration which inhibits hepatitis B virus replication in the HepAD38 cell line.; assay type: functional; details: Homo sapiens
# [10] = system: HepG2; assay: as §1; assay type: functional, cell-based; details: Homo sapiens
# [11] = system: HepG2; assay: The concentration of compound which inhibits hepatitis B virus replication in the HepAD38 cell line.; details: Homo sapiens
Structure (SMILES),EC50 [1],EC50 [2],CC50 [3],EC50 [4],EC50 [5],EC50 [6],EC50 [7],EC50 [8],EC90 [9],EC50 [10],EC90 [11]
O=C(N/C(C(=O)N1CCCCC1)=C(/Br)c1ccc(Cl)cc1)c1ccc([N+](=O)[O-])cc1,> 81 µM,> 81 µM,> 60 µM,1.6 µM,> 81 µM,> 81 µM,> 81 µM,> 81 µM,,,
Cc1ccccc1/C(Br)=C(\NC(=O)c1ccccc1)C(=O)N1CCCCC1,> 81 µM,> 81 µM,> 70 µM,0.89 µM,> 81 µM,> 81 µM,> 81 µM,> 81 µM,,,
COc1ccccc1/C(Br)=C(\NC(=O)c1ccc([N+](=O)[O-])cc1)C(=O)N1CCCCC1,> 81 µM,> 81 µM,> 61 µM,0.13 µM,> 81 µM,> 81 µM,> 81 µM,> 81 µM,0.92 µM,,
O=C(N/C(C(=O)N1CCCCCCC1)=C(/Cl)c1ccccc1)c1ccccc1,,,,,,,,,,> 75 µM,
O=C(N/C(C(=O)N1CCOCC1)=C(/Cl)c1ccccc1)c1ccccc1,,,,,,,,,,7.3 µM,
O=C(N/C(C(=O)N1CCCCC1)=C(/Cl)c1ccc(Cl)cc1)c1ccccc1,> 81 µM,> 81 µM,45 µM,,> 81 µM,> 81 µM,> 81 µM,> 81 µM,,,
O=C(N/C(C(=O)N1CCCCC1)=C(/Br)c1ccccc1F)c1ccc([N+](=O)[O-])cc1,> 81 µM,> 81 µM,42 µM,0.31 µM,> 81 µM,> 81 µM,> 81 µM,> 81 µM,1.8 µM,,
O=C(N/C(C(=O)N1CCCCC1)=C(/Br)c1ccccc1)c1ccc(F)cc1,> 81 µM,> 81 µM,> 69 µM,0.86 µM,> 81 µM,> 81 µM,> 81 µM,> 81 µM,4.4 µM,,
O=C(N/C(C(=O)N1CCCCC1)=C(/Br)c1ccc(Cl)cc1)c1ccccc1,> 81 µM,> 81 µM,55 µM,11 µM,> 81 µM,> 81 µM,> 81 µM,> 81 µM,,,
COc1ccc(/C(Br)=C(\NC(=O)c2ccccc2)C(=O)N2CCCCC2)cc1,> 81 µM,> 81 µM,> 67 µM,13 µM,> 81 µM,> 81 µM,> 81 µM,> 81 µM,,,
O=C(NCc1ccccc1)/C(NC(=O)c1ccccc1)=C(\Cl)c1ccccc1,,,,,,,,,,> 75 µM,
O=C(N/C(C(=O)N1CCCCC1)=C(/Br)c1ccccc1)c1ccc(Cl)cc1,> 81 µM,> 81 µM,> 67 µM,0.54 µM,> 81 µM,> 81 µM,> 81 µM,> 81 µM,3.1 µM,,
COc1ccc(C(=O)N/C(C(=O)N2CCCCC2)=C(/Br)c2ccccc2)cc1,> 81 µM,> 81 µM,> 67 µM,1.9 µM,> 81 µM,> 81 µM,> 81 µM,> 81 µM,19 µM,,
O=C(N/C(C(=O)N1CCCCC1)=C(/Br)c1ccc(F)cc1)c1ccc([N+](=O)[O-])cc1,> 81 µM,> 81 µM,> 63 µM,0.72 µM,> 81 µM,> 81 µM,> 81 µM,> 81 µM,11 µM,,
O=C(N/C(C(=O)N1CCCCC1)=C(/Br)c1ccc(F)cc1)c1ccccc1,> 81 µM,> 81 µM,> 70 µM,3.9 µM,> 81 µM,> 81 µM,> 81 µM,> 81 µM,,,
O=C(N/C(C(=O)N1CCCCC1)=C(/Br)c1ccccc1)c1ccc([N+](=O)[O-])cc1,> 81 µM,> 81 µM,> 65 µM,0.35 µM,> 81 µM,> 81 µM,> 81 µM,> 81 µM,3 µM,,
O=C(N/C(C(=O)N1CCCC1)=C(/Cl)c1ccccc1)c1ccccc1,,,,,,,,,,5.6 µM,
COc1ccccc1/C(Br)=C(\NC(=O)c1ccccc1)C(=O)N1CCCCC1,> 81 µM,> 81 µM,> 70 µM,2.1 µM,> 81 µM,> 81 µM,> 81 µM,> 81 µM,,,

Structure (SMILES),EC50 [1],EC50 [2],CC50 [3],EC50 [4],EC50 [5],EC50 [6],EC50 [7],EC50 [8],EC90 [9],EC50 [10],EC90 [11]
O=C(N/C(C(=O)N1CCCCCC1)=C(/Cl)c1ccccc1)c1ccccc1,,,,,,,,,,> 75 µM,
CCN(CC)C(=O)/C(NC(=O)c1ccccc1)=C(\Cl)c1ccccc1,,,,,,,,,,> 75 µM,
O=C(N/C(C(=O)N1CCCCC1)=C(/Cl)c1ccccc1)c1ccc(F)cc1,> 81 µM,> 81 µM,> 67 µM,1.3 µM,> 81 µM,> 81 µM,> 81 µM,> 81 µM,5.5 µM,,
COc1ccc(/C(Cl)=C(\NC(=O)c2ccccc2)C(=O)N2CCCCC2)cc1,> 81 µM,> 81 µM,> 75 µM,> 75 µM,> 81 µM,> 81 µM,> 81 µM,> 81 µM,,,
Cc1ccc(C(=O)N/C(C(=O)N2CCCCC2)=C(/Br)c2ccccc2)cc1,> 81 µM,> 81 µM,> 70 µM,2.1 µM,> 81 µM,> 81 µM,> 81 µM,> 81 µM,12 µM,,
O=C(N/C(C(=O)N1CCCCC1)=C(/Br)c1ccccc1F)c1ccccc1,> 81 µM,> 81 µM,70 µM,1.5 µM,> 81 µM,> 81 µM,> 81 µM,> 81 µM,,,
Cc1ccccc1/C(Br)=C(\NC(=O)c1ccc([N+](=O)[O-])cc1)C(=O)N1CCCCC1,> 81 µM,> 81 µM,> 63 µM,0.6 µM,> 81 µM,> 81 µM,> 81 µM,> 81 µM,4.6 µM,,
O=C(Nc1nccs1)/C(NC(=O)c1ccccc1)=C(\Cl)c1ccccc1,,,,,,,,,,> 75 µM,
O=C(N/C(C(=O)N1CCCCC1)=C(/Cl)c1ccccc1)c1ccc(C(F)(F)F)cc1,> 81 µM,> 81 µM,> 69 µM,> 69 µM,> 81 µM,> 81 µM,> 81 µM,> 81 µM,,,
COc1ccc(C(=O)N/C(C(=O)N2CCCCC2)=C(/Cl)c2ccccc2)cc1,> 81 µM,> 81 µM,> 75 µM,5.2 µM,> 81 µM,> 81 µM,> 81 µM,> 81 µM,,,
O=C(N/C(C(=O)N1CCCCC1)=C(/Br)c1ccccc1)c1ccc(C(F)(F)F)cc1,> 81 µM,> 81 µM,> 62 µM,5 µM,> 81 µM,> 81 µM,> 81 µM,> 81 µM,34 µM,,
O=C(N/C(C(=O)N1CCCCC1)=C(/Br)c1ccccc1)c1ccccc1,> 81 µM,> 81 µM,> 72 µM,1.3 µM,> 81 µM,> 81 µM,> 81 µM,> 81 µM,21 µM,,
Nc1nc(=O)n([C@@H]2CS[C@H](CO)O2)cc1F [EMTRICITABINE],> 81 µM,> 81 µM,,,> 81 µM,> 81 µM,> 81 µM,> 81 µM,,0.03 µM,0.3 µM
O=C(N/C(C(=O)N1CCCCC1)=C(/Br)c1ccccc1)c1ccc(Br)cc1,> 81 µM,> 81 µM,> 61 µM,0.53 µM,> 81 µM,> 81 µM,> 81 µM,> 81 µM,3.7 µM,,
O=C(N/C(C(=O)N1CCCCC1)=C(/Cl)c1ccccc1F)c1ccccc1,> 81 µM,> 81 µM,31 µM,,> 81 µM,> 81 µM,> 81 µM,> 81 µM,,,
O=C(N/C(C(=O)N1CCCCC1)=C(/Cl)c1ccccc1)c1ccccc1,> 81 µM,> 81 µM,> 81 µM,1.2 µM,> 81 µM,> 81 µM,> 81 µM,> 81 µM,13 µM,,
Cc1ccc(/C(Br)=C(\NC(=O)c2ccccc2)C(=O)N2CCCCC2)cc1,> 81 µM,> 81 µM,> 70 µM,2.8 µM,> 81 µM,> 81 µM,> 81 µM,> 81 µM,,,
O=C(N/C(C(=O)N1CCCCC1)=C(/Cl)c1ccc(F)cc1)c1ccccc1,> 81 µM,> 81 µM,> 75 µM,3.1 µM,> 81 µM,> 81 µM,> 81 µM,> 81 µM,28 µM,,
